Results taken from article PMC12339163, “Combining Plant Bioactives With Antibiotics for Enhanced Antibiofilm Activity Against Uropathogenic Staphylococcus spp. and Cytotoxicity Evaluation” (Advances in Pharmacological and Pharmaceutical Sciences, 2025).
Several values for one entry are separate records, joined by “and”; a condition that tells them apart may be missing. Equal values may be shown once. Read-outs that look alike come from different tables or passages of the source. One block for each compound: values may come before it.

Tests used:
[1] = system: planktonic cells of Staphylococcus spp.; assay: Checkerboard combination assay, planktonic cells, synergistic combinations (Table 3); assay type: cell-based; conditions: mean
Protocol: (§1) The checkerboard assay, as previously described, was used for the determination of the fractional inhibitory concentration index (FICI). Briefly, 50 µL of MHB was distributed into each well of a 96-well microplate. ATBs were serially diluted along the abscissa, and NPs were serially diluted along the ordinate. Then, 100 µL of bacterial inoculum (1.5 × 10^6 CFU/mL) was added to each well and incubated at 37°C for 24 h. The final concentration ranged from 0.125 to 128 µg/mL for ATBs and 4–512 µg/mL for NPs. After incubation, a volume of 40 µL of INT solution (0.2 mg/mL) was added to each well, and the microplate was incubated at 37°C for 30 min. The wells containing bacterial inoculum and MHB were used as a positive control, while wells containing only MHB + 1% glucose were used as a negative control and used as a blank. Viable bacteria cells change the yellow dye of INT to a pink color. The MICs were considered to be the lowest NP concentrations that prevented the color change medium. Subsequently, the FICI was calculated according to the formula FICI = (MIC of the ATBs in combination/MIC of the ATBs alone) + (MIC of a natural substance in combination/MIC of the natural substance alone). FICI values were interpreted as follows: synergy when FICI ≤ 0.5; additive when 0.5 < FICI ≤ 1; indifference when 1 < FICI ≤ 4; and antagonism when FICI > 4.

[2] = system: Staphylococcus aureus biofilm; assay: Checkerboard combination assay, biofilm eradication; assay type: cell-based
Summary of the method: (§2)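 Biofilms preformed for 24 h were washed and exposed to antibiotics (0.0625–128 µg/mL) combined with NPs (4–512 µg/mL) for 24 h at 37°C in checkerboard format. Viability was read by MTT reduction to set MBEC, and FICI was calculated for the combination.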

[3] = system: Staphylococcus saprophyticus biofilm; assay: as above; assay type: cell-based
Summary of the method: as §2

[4] = system: planktonic cells of Staphylococcus epidermidis; assay: Checkerboard combination assay, planktonic cells; assay type: cell-based; conditions: planktonic S. epidermidis, mean MIC; for MIC alone, ATB: antibiotic alone; for MIC alone, NPs: natural product alone, in µg/mL
Protocol: as §1

S. epidermidis biofilm = assay: Time-kill kinetic assay on biofilm inhibition; assay type: cell-based, Staphylococcus epidermidis; conditions: at 24 h
Protocol: The biofilm formation inhibitory activity of NPs and ATBs was carried out according to the method previously described. A total of 100 µL of bacterial inoculum (1.5 × 10^6 CFU/mL) was used, and 100 µL of each sample was added to the microplate to achieve final concentrations ranging from 0.25 µg/mL to 128 µg/mL for ATBs and from 8 µg/mL to 1024 µg/mL for NPs. Then, the microplate was incubated at 37°C for 24 h. After incubation, the plates were gently emptied and washed three times with a phosphate buffer solution at pH 7.2. Then, the MTT solution (0.5 mg/mL) prepared in PBS was introduced into each well, and the microplate was further incubated at 37°C for 24 h. Untreated wells containing bacterial suspension and MHB supplemented with 1% glucose were considered positive controls, and wells containing only MHB+1% glucose without bacteria were used as blanks. After incubation, the MTT solution was aspirated, then 150 µL of DMSO was introduced to dissolve the formazan crystal formed by viable bacteria, and the optical density (OD) was measured at 570 nm using a microplate reader (VERSA-max). The percentage of biofilm inhibition was calculated using the formula below, and the minimal biofilm inhibitory concentration (MBIC) was recorded as the lowest concentration of NPs or ATBs that inhibited 100% of biofilm:(1) % biofilm inhibition=ODcontrol−ODblank−ODtest−ODblank/ODcontrol−ODblank×100.
The five best synergistic antibiofilm combinations were selected, and their ability to inhibit biofilm formation and eradication as a function of time was evaluated at 4-h intervals for 24 h by the microtiter plate method, as previously described. The synergistic antibiofilm combinations selected were with FICI < 0.4, named C1 to C5. C1: cefixime (5.33 µg/mL) + thymol (32 µg/mL); C2: cefazolin (1.16 µg/mL) + thymol (21.33 µg/mL); C3: amikacin (0.18 µg/mL) + curcumin (37.33 µg/mL); C4: kanamycin (0.25 µg/mL) + curcumin (14 µg/mL); and C5: amoxicillin (1.16 µg/mL) + curcumin (21.33 µg/mL). The kinetics of biofilm inhibition and eradication were performed as described above for the biofilm inhibition and eradication assay using the indicated combinations, followed by the reading of the optical densities (570 nm) at 4-h intervals over 24 h (0, 4, 8, 12, 16, and 24 h). In both cases, experiments were carried out three times in triplicate.

[5] = S. aureus biofilm eradication, antibiotic alone, mean MBEC
[6] = S. aureus, biofilm eradication, mean
[7] = S. saprophyticus biofilm eradication, antibiotic alone, mean MBEC
[8] = C1 and its components (cefixime 5.33 µg/mL, thymol 32 µg/mL)
[9] = S. saprophyticus, biofilm eradication, mean
[10] = C2 and its components (cefazolin 1.16 µg/mL, thymol 21.33 µg/mL)

- MIC ([1]; read-out: MIC alone, ATB): 1.16 µg/mL
- MIC alone, ATB [4]: 1.16 µg/mL
SMILES: NCC[C@H](O)C(=O)N[C@@H]1C[C@H](N)[C@@H](O[C@H]2O[C@H](CN)[C@@H](O)[C@H](O)[C@H]2O)[C@H](O)[C@H]1O[C@H]1O[C@H](CO)[C@@H](O)[C@H](N)[C@H]1O [Amikacin, amikacin]
- MBEC Alone ATB [2, 5]: 13.33 µg/mL
- MBEC Alone ATB [2, 6]: 13.33 µg/mL
- MBEC Alone ATB [3, 7]: 13.33 µg/mL

- MIC alone, ATB [4]: 107 µg/mL
SMILES: C=CC1=C(C(=O)O)N2C(=O)[C@@H](NC(=O)/C(=N\OCC(=O)O)c3csc(N)n3)[C@H]2SC1 [Cefixime, cefixime]
- OD (570 nm), biofilm inhibition (S. epidermidis biofilm; [8]): 0.84
- MBEC Alone ATB [2, 5]: 42.66 µg/mL
- MBEC Alone ATB [3, 7]: 48 µg/mL
- MBEC Alone ATB [3, 9]: 48 µg/mL

- MIC alone, ATB [4]: 42.7 µg/mL
SMILES: Cc1nnc(SCC2=C(C(=O)O)N3C(=O)[C@@H](NC(=O)Cn4cnnn4)[C@H]3SC2)s1 [Cefazolin, cefazolin]
- OD (570 nm), biofilm inhibition (S. epidermidis biofilm; [10]): 1.27
- MBEC Alone ATB [2, 5]: 42.66 µg/mL
- MBEC Alone ATB [2, 6]: 42.66 µg/mL
- MBEC Alone ATB [3, 7]: 10.66 µg/mL
- MBEC Alone ATB [3, 9]: 48 µg/mL

- MIC alone, ATB [4]: 7.33 µg/mL
SMILES: NC[C@H]1O[C@H](O[C@H]2[C@H](O)[C@@H](O[C@H]3O[C@H](CO)[C@@H](O)[C@H](N)[C@H]3O)[C@H](N)C[C@@H]2N)[C@H](O)[C@@H](O)[C@@H]1O [Kanamycin, kanamycin]
- MBEC Alone ATB [2, 5]: 14.66 µg/mL
- MBEC Alone ATB [3, 7]: 10.66 µg/mL

- MIC ([1]; read-out: MIC alone, ATB): 7 µg/mL
- MIC alone, ATB [4]: 7 µg/mL
SMILES: C[C@H]1c2cccc(O)c2C(=O)C2=C(O)[C@]3(O)C(=O)C(C(N)=O)=C(O)[C@@H](N(C)C)[C@@H]3[C@@H](O)[C@@H]21 [Doxycycline, doxycycline]
- MBEC Alone ATB [2, 5]: 16 µg/mL
- MBEC Alone ATB [3, 7]: 9.33 µg/mL

- MIC alone, ATB [4]: 26.8 µg/mL
SMILES: CC1(C)S[C@@H]2[C@H](NC(=O)[C@H](N)c3ccc(O)cc3)C(=O)N2[C@H]1C(=O)O [Amoxicillin, amoxicillin]
- MBEC Alone ATB [2, 5]: 37.33 µg/mL
- MBEC Alone ATB [3, 7]: 9.33 µg/mL

- MIC ([1]; 24 h, read-out: MIC alone, NPs): 427 µg/mL
- MIC alone, NPs [4]: 426.66
SMILES: Cc1ccc(C(C)C)c(O)c1 [Thymol, thymol]
- OD (570 nm), biofilm inhibition (S. epidermidis biofilm; [8]): 0.67
- OD (570 nm), biofilm inhibition (S. epidermidis biofilm; [10]): 0.96
- MBEC Alone NPs [3, 9]: 128 µg/mL

SMILES: CC1=CC(=O)c2c(O)cccc2C1=O [Plumbagin, plumbagin]
- MBEC Alone NPs [3, 9]: 10.66 µg/mL

- MIC alone, ATB [4]: 32.7 µg/mL
SMILES: CC[C@H]1OC(=O)[C@H](C)[C@@H](O[C@H]2C[C@@](C)(OC)[C@@H](O)[C@H](C)O2)[C@H](C)[C@@H](O[C@@H]2O[C@H](C)C[C@H](N(C)C)[C@H]2O)[C@](C)(O)C[C@@H](C)C(=O)[C@H](C)[C@@H](O)[C@]1(C)O [Erythromycin, erythromycin]
- MBEC Alone ATB [2, 5]: 44 µg/mL
- MBEC Alone ATB [3, 7]: 29.33 µg/mL
- MBEC Alone ATB [3, 9]: 29.33 µg/mL

- MIC ([1]; 24 h, read-out: MIC alone, NPs): 512 µg/mL
- MIC alone, NPs ([4]; listed as Gal): 426.66 and 277.33
SMILES: O=C(O)c1cc(O)c(O)c(O)c1 [Gallic acid, 3,4,5-trihydroxybenzoic acid]
- MBEC Alone NPs ([2]; S. aureus biofilm eradication, natural product alone, mean MBEC): 298.66 µg/mL

SMILES: O=c1c(O)c(-c2ccc(O)c(O)c2)oc2cc(O)cc(O)c12 [Quercetin, quercetin]
- MIC alone, NPs ([4]; listed as Que): 512 and 362.66

- MIC ([1]; 24 h, read-out: MIC alone, NPs): 384 µg/mL
- MIC alone, NPs [4]: 384
SMILES: COc1cc(/C=C/C(=O)CC(=O)/C=C/c2ccc(O)c(OC)c2)ccc1O [Curcumin, curcumin]
- MBEC Alone NPs ([2]; S. aureus biofilm eradication, natural product alone, mean MBEC, listed as Cur): 128 µg/mL and 149.33 µg/mL and 170.66 µg/mL and 106.66 µg/mL
- MBEC Alone NPs [2, 6]: 277.33 µg/mL
- MBEC Alone NPs ([3]; S. saprophyticus biofilm eradication, natural product alone, mean MBEC, listed as Cur): 170.66 µg/mL and 213.33 µg/mL

SMILES: COc1ccc2cc3[n+](cc2c1OC)CCc1cc2c(cc1-3)OCO2 [Berberine, berberine]
- MBEC Alone NPs [2, 6]: 149.33 µg/mL
- MBEC Alone NPs ([3]; S. saprophyticus biofilm eradication, natural product alone, mean MBEC, listed as Ber): 128 µg/mL and 85.33 µg/mL and 106.66 µg/mL and 170.66 µg/mL
- MBEC Alone NPs [3, 9]: 128 µg/mL
